In patent publication US20060234323A1, “Luminescent ATP detection with extended linearity” (priority 2005, published 2006):
Like-named read-outs stand apart in the source and are kept apart here.

Legend:
[1] = target: thermostable luciferase (Luc146-1H2) (Photuris pensylvanica, UniProt Q27757); type: biochemical, Photuris pennsylvanica
[2] = target: wild type luciferase from Photinus pyralis (QuantiLum recombinant luciferase) (Photinus pyralis, UniProt P08659); type: biochemical
[3] = No PPi, 1 mM AMP, 2 mM 5′AMPS, 2 mM ADP S, 5 mM dATP, ATP 0 to 1.67 mM
[4] = with 50 μM PPi, 1 mM AMP, 2 mM 5′AMPS, 2 mM ADP S, 5 mM dATP, ATP 0 to 1.67 mM
[5] = NT (no inhibitor), metal salt replacing MgSO4, MgSO4 reactions employed NaATP, read-out: ATP Km
[6] = with AMP + PPi, metal salt replacing MgSO4, MgSO4 reactions employed NaATP, read-out: ATP Km
[7] = with AMP, metal salt replacing MgSO4, MgSO4 reactions employed NaATP, read-out: ATP Km
[8] = with PPi, metal salt replacing MgSO4, MgSO4 reactions employed NaATP, read-out: ATP Km

Sequence of thermostable luciferase (Luc146-1H2) (Q27757 whole entry): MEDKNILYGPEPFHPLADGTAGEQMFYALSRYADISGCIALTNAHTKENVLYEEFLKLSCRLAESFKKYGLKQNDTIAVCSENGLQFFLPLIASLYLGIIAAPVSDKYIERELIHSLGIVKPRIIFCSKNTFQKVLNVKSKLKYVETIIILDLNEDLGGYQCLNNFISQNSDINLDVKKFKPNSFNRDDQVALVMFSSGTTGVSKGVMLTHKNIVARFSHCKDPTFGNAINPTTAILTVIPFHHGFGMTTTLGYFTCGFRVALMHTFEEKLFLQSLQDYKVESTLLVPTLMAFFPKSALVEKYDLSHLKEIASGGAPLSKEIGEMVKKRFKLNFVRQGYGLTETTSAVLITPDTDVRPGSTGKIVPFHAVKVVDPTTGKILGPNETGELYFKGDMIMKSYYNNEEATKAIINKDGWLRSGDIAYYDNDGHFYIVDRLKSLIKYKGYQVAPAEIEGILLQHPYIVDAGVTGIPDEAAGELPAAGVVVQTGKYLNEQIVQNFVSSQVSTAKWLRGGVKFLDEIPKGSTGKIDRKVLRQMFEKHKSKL
Sequence of wild type luciferase from Photinus pyralis (QuantiLum recombinant luciferase) (P08659 whole entry): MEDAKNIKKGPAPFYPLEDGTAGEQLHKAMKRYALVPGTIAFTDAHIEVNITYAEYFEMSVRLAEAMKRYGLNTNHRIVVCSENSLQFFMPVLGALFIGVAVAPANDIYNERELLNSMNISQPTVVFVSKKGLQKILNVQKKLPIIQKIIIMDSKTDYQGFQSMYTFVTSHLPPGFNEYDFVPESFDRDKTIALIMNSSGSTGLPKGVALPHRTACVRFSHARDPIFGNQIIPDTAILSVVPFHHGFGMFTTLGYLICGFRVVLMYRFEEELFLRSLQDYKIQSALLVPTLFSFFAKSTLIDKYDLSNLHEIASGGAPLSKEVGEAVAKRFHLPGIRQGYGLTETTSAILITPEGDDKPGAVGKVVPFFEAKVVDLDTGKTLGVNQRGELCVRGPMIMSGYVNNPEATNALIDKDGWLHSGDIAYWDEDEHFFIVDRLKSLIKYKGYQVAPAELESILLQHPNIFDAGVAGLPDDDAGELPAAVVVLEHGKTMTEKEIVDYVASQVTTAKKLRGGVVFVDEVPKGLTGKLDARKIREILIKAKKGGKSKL

Structure (SMILES) | increase of the luciferase Km for ATP [1] [fold] | type of inhibition of luciferase with respect to ATP [1] | Km [1, 3] [µM] | Km [1, 4] [µM] | Km [2, 5] [µM] | Km [2, 6] [µM] | Km [2, 7] [µM] | Km [2, 8] [µM] | also measured
Nc1ncnc2c1ncn2[C@@H]1O[C@H](COP(O)(O)=S)[C@@H](O)[C@H]1O [5′AMPS, adenosine 5′-O-thiomonophosphate] | ~10 | competitive inhibitors | 91 | 1070 | – | – | – | – | –
Nc1ncnc2c1ncn2[C@@H]1O[C@H](COP(=O)(O)OP(O)(O)=S)[C@@H](O)[C@H]1O [ADP S, adenosine 5′-[β-thio] diphosphate] | ~10 | competitive inhibitors | 93 | 581 | – | – | – | – | –
Nc1ncnc2c1ncn2[C@@H]1O[C@H](COP(=O)(O)O)[C@@H](O)[C@H]1O [AMP, adenosine monophosphate] | ~10 | competitive inhibitors | 109 | 1700 | – | – | – | – | Km ([1]; read-out: ATP Km, 1 mM AMP, ATP range 0-1.67 mM): 109 µM; Km ([1]; read-out: Km for ATP, ATP range 0 to 0.09 mM, AMP = 1 mM, PPi = 50 μM, hyperbolic curve fit): 232 µM; Km ([1]; read-out: Km for ATP, ATP range 0 to 0.3 mM, AMP = 1 mM, PPi = 50 μM, hyperbolic curve fit): 243 µM; Km ([1]; read-out: Km for ATP, ATP range 0 to 0.8 mM, AMP = 1 mM, PPi = 50 μM, hyperbolic curve fit): 203 µM; Km ([1]; read-out: Km for ATP, ATP range 0 to 2.5 mM, AMP = 1 mM, PPi = 50 μM, hyperbolic curve fit): 115 µM; decrease in Km ([2]; 3 mM AMP alone, compared to reactions with no PPi or AMP): 65%
[Ca+2].[Cl-].[Cl-] [CaCl2] | – | – | – | – | 1910 | 1040 | 980 | 1450 | –
[Cl-].[Cl-].[Mg+2] [MgCl2] | – | – | – | – | 115 | 213 | 56 | 276 | –
O=S(=O)([O-])[O-].[Mg+2] [MgSO4] | – | – | – | – | 39 | 93 | 15 | 128 | –
[Cl][Mn][Cl] [MnCl2] | – | – | – | – | 120 | 111 | 44 | 170 | –
[Cl][Ni][Cl] [NiCl2] | – | – | – | – | 906 | 1540 | 1100 | 2420 | increase of the Km for ATP ([1]; non-Mg metal employed with PPi): about 10 fold
O=P(O)(O)OP(=O)(O)O [PPi] | ≤ 2 | noncompetitive | – | – | – | – | – | – | Km ([1]; 50 μM PPi alone (NT row, no adenosine derivative), ATP 0 to 1.67 mM, read-out: Km): 4 µM; Km ([1]; ATP range 0 to 0.09 mM, AMP = 1 mM, PPi = 50 μM, hyperbolic curve fit, read-out: Km for ATP): 6 µM; Km ([1]; ATP range 0 to 0.3 mM, AMP = 1 mM, PPi = 50 μM, hyperbolic curve fit, read-out: Km for ATP): 6 µM; Km ([1]; ATP range 0 to 0.8 mM, AMP = 1 mM, PPi = 50 μM, hyperbolic curve fit, read-out: Km for ATP): 6 µM; Km ([1]; ATP range 0 to 2.5 mM, AMP = 1 mM, PPi = 50 μM, hyperbolic curve fit, read-out: Km for ATP): 5 µM; Km ([2]; 0 mM AMP, 50 μM PPi, ATP 0 to 2.5 mM, MgATP, read-out: Km): 121 µM; Km ([2]; 0 mM AMP, 100 μM PPi, ATP 0 to 2.5 mM, MgATP, read-out: Km): 130 µM; Km ([2]; 0 mM AMP, 200 μM PPi, ATP 0 to 2.5 mM, MgATP, read-out: Km): 146 µM; increase in Km ([2]; 200 μM PPi alone, compared to reactions with no PPi or AMP): 28%; type of inhibition of luciferase with respect to ATP ([2]; native beetle luciferase, in the presence of certain divalent metals): competitive
[Cl-].[Cl-].[Sr+2] [SrCl2] | – | – | – | – | 373 | 2650 | 110 | 3290 | –
[Cl-].[Cl-].[Zn+2] [ZnCl2] | – | – | – | – | 63 | 2390 | 585 | 109 | –
Nc1ncnc2c1ncn2[C@H]1C[C@H](O)[C@@H](COP(=O)(O)OP(=O)(O)OP(=O)(O)O)O1 [dATP, deoxyadenosine triphosphate] | ~10 | competitive inhibitors | 127 | 232 | – | – | – | – | –
